Laboratory results from US20150231199A1, “PEPTIDES AND THEIR USES” (priority 2012, published 2015).
≈ marks a conversion by molar mass, not a printed value. Positions of bridges follow the written chain, without caps; N, C: chain ends. Residues, ends and D or L forms follow the SMILES beside them. Chains are numbered I, II in the order given. *: point of attachment. Lauroyl = CCCCCCCCCCCC(=O)*; Decanoyl = CCCCCCCCCC(=O)*; Octanoyl = CCCCCCCC(=O)*; Hexanoyl = CCCCCC(=O)*; Butyryl = CCCC(=O)*

Experiments:
[1] = system: Methicillin-resistant Staphylococcus aureus (MRSA); assay type: cell-based
Method: (§1) V2-dimer and all lipopeptides (FIG. 1A) used in this study were purchased from Mimotopes. All peptides were prepared by dissolving in sterile water to make 1000 μg/mL stock solutions. Minimum Inhibitory Concentration (MIC) determination was carried out in Mueller Hinton Broth (MHB) using the broth macro-dilution method as described by the Clinical and Laboratory Standards Institute (CLSI). Then, cation-adjusted MHB (CA-MHB) was used to prepare serial two fold dilutions of the compounds in test tubes. The concentration of the inoculums suspension was also adjusted to approximately 5×10^5 Colony Forming Units (CFU)/mL using MHB. Bacteria were incubated with the compounds for 24 hours at 35° C. prior to reading. In this study, Gram-positive strains used were Staphylococcus aureus DM4001 and Methicillin-resistant Staphylococcus aureus (MRSA) DM9808. Gram-negative strains used were Klebsiella pneumoniae DM4299, Pseudomonas aeruginosa ATCC23155 and Escherichia coli ATCC27922.
(§2) Methods used are as described in Example 1 above.

[2] = system: Pseudomonas aeruginosa; assay type: cell-based
Method: as §1, §2

[3] = system: Staphylococcus aureus; assay type: cell-based
Method: as §1, §2

[4] = system: Klebsiella pneumoniae DM4299; assay type: cell-based
Method: as §1

[5] = system: Escherichia coli ATCC27922; assay type: cell-based
Method: as §1

[6] = system: red blood cells (RBCs) of New Zealand white rabbits; experiment: in vitro; assay type: cell-based, rabbit; settings: red cells of rabbit, 1 h
Method: Fresh red blood cells (RBCs) of New Zealand white rabbits were used for this experiment. The RBCs obtained were centrifuged at 3000 rpm for 10 min. Supernatant was removed and washed twice with sterile PBS Buffer (20 mM, 100 mM NaCl, pH 7). The RBCs were further diluted to 8% stock solution in PBS. Peptides were dissolved in PBS with desired stock concentrations. When compounds were mixed with RBCs, desired concentration of 4% RBCs was obtained. For C14V2D and C16V2D, they were dissolved in Dimethylformamide ([…]; DMF) with desired stock concentrations. When compounds were mixed with RBCs, desired concentration of 4% RBCs and 0.5% DMF was obtained. DMF concentration of <1% was used as it had negligible hemolytic activity on RBCs. The mixtures were added to 1.5 mL centrifuge tubes and incubated at 37° C. for 1 h. After incubation, the blood was centrifuged at 3000 rpm for 3 min at 4° C. 100 μL of the supernatant was transferred into transparent 96-well plate. The absorbance was measured at 576 nm using a microplate reader (TECAN Infinite 200M Pro). 2% Triton X-100 was used as positive control. PBS was used as negative controls. The amount of hemoglobin released was calculated using the following equation: […]

SMILES | MIC [1] [µM] | MIC [2] [µM] | MIC [3] [µM] | MIC [4] [µM] | MIC [5] [µM] | HC10 [6] [µg/mL]
CCCC(=O)N[C@@H](CCCNC(=N)N)C(=O)NCC(=O)N[C@@H](CCCNC(=N)N)C(=O)N[C@@H](CCCCN)C(=O)NCC(=O)NCC(=O)N[C@@H](CCCNC(=N)N)C(=O)N[C@@H](CCCNC(=N)N)C(=O)NCCCC[C@H](NC(=O)[C@H](CCCNC(=N)N)NC(=O)[C@H](CCCNC(=N)N)NC(=O)CNC(=O)CNC(=O)[C@H](CCCCN)NC(=O)[C@H](CCCNC(=N)N)NC(=O)CNC(=O)[C@H](CCCNC(=N)N)NC(=O)CCC)C(=O)N[C@@H](CCCCN)C(=O)O [Peptide C4-G2D, (C3H7—CO—NH—RGRKGGRR)2KK] (I: Butyryl-RGRKGGRRKK-OH / II: Butyryl-RGRKGGRR; amide I:9-II:C; N-terminus and C-terminus assumed) | 5.52 (≈ 12.5 µg/mL) | 2.76 (≈ 6.25 µg/mL) | 5.39 (≈ 12.2 µg/mL) | 5.52 (≈ 12.5 µg/mL) | – | –
CCCCCC(=O)N[C@@H](CCCNC(=N)N)C(=O)NCC(=O)N[C@@H](CCCNC(=N)N)C(=O)N[C@@H](CCCCN)C(=O)NCC(=O)NCC(=O)N[C@@H](CCCNC(=N)N)C(=O)N[C@@H](CCCNC(=N)N)C(=O)NCCCC[C@H](NC(=O)[C@H](CCCNC(=N)N)NC(=O)[C@H](CCCNC(=N)N)NC(=O)CNC(=O)CNC(=O)[C@H](CCCCN)NC(=O)[C@H](CCCNC(=N)N)NC(=O)CNC(=O)[C@H](CCCNC(=N)N)NC(=O)CCCCC)C(=O)N[C@@H](CCCCN)C(=O)O [Peptide C6-G2D, (C5H11—CO—NH—RGRKGGRR)2KK] (I: Hexanoyl-RGRKGGRRKK-OH / II: Hexanoyl-RGRKGGRR; amide I:9-II:C; N-terminus and C-terminus assumed) | 2.70 (≈ 6.26 µg/mL) | 5.39 (≈ 12.5 µg/mL) | 5.26 (≈ 12.2 µg/mL) | 2.70 (≈ 6.26 µg/mL) | – | –
CCCCCCCCCC(=O)N[C@@H](CCCNC(=N)N)C(=O)NCC(=O)N[C@@H](CCCNC(=N)N)C(=O)N[C@@H](CCCCN)C(=O)NCC(=O)NCC(=O)N[C@@H](CCCNC(=N)N)C(=O)N[C@@H](CCCNC(=N)N)C(=O)NCCCC[C@H](NC(=O)[C@H](CCCNC(=N)N)NC(=O)[C@H](CCCNC(=N)N)NC(=O)CNC(=O)CNC(=O)[C@H](CCCCN)NC(=O)[C@H](CCCNC(=N)N)NC(=O)CNC(=O)[C@H](CCCNC(=N)N)NC(=O)CCCCCCCCC)C(=O)N[C@@H](CCCCN)C(=O)O [Peptide C10-G2D, (C9H19—CO—NH—RGRKGGRR)2KK] (I: Decanoyl-RGRKGGRRKK-OH / II: Decanoyl-RGRKGGRR; amide I:9-II:C; N-terminus and C-terminus assumed) | 2.57 (≈ 6.25 µg/mL) | 2.57 (≈ 6.25 µg/mL) | 2.51 (≈ 6.1 µg/mL) | 2.57 (≈ 6.25 µg/mL) | – | –
CCCCCCCCCCCC(=O)N[C@@H](CCCNC(=N)N)C(=O)NCC(=O)N[C@@H](CCCNC(=N)N)C(=O)N[C@@H](CCCCN)C(=O)NCC(=O)NCC(=O)N[C@@H](CCCNC(=N)N)C(=O)N[C@@H](CCCNC(=N)N)C(=O)NCCCC[C@H](NC(=O)[C@H](CCCNC(=N)N)NC(=O)[C@H](CCCNC(=N)N)NC(=O)CNC(=O)CNC(=O)[C@H](CCCCN)NC(=O)[C@H](CCCNC(=N)N)NC(=O)CNC(=O)[C@H](CCCNC(=N)N)NC(=O)CCCCCCCCCCC)C(=O)N[C@@H](CCCCN)C(=O)O [Peptide C12-G2D, (C11H23—CO—NH—RGRKGGRR)2KK] (I: Lauroyl-RGRKGGRRKK-OH / II: Lauroyl-RGRKGGRR; amide I:9-II:C; N-terminus and C-terminus assumed) | 40.21 (≈ 100 µg/mL) | >40.21 | >40.21 | 40.21 (≈ 100 µg/mL) | – | –

The remaining lines, values ahead:

MIC [1] [µM] | MIC [2] [µM] | MIC [3] [µM] | MIC [4] [µM] | MIC [5] [µM] | HC10 [6] [µg/mL] | SMILES
5.66 (≈ 12.5 µg/mL) | 2.83 (≈ 6.24 µg/mL) | 5.52 (≈ 12.2 µg/mL) | 5.66 (≈ 12.5 µg/mL) | – | – | CC(=O)N[C@@H](CCCNC(=N)N)C(=O)NCC(=O)N[C@@H](CCCNC(=N)N)C(=O)N[C@@H](CCCCN)C(=O)NCC(=O)NCC(=O)N[C@@H](CCCNC(=N)N)C(=O)N[C@@H](CCCNC(=N)N)C(=O)NCCCC[C@H](NC(=O)[C@H](CCCNC(=N)N)NC(=O)[C@H](CCCNC(=N)N)NC(=O)CNC(=O)CNC(=O)[C@H](CCCCN)NC(=O)[C@H](CCCNC(=N)N)NC(=O)CNC(=O)[C@H](CCCNC(=N)N)NC(C)=O)C(=O)N[C@@H](CCCCN)C(=O)O [Peptide C2-G2D, (CH3—CO—NH—RGRKGGRR)2KK] (I: Ac-RGRKGGRRKK-OH / II: Ac-RGRKGGRR; amide I:9-II:C; N-terminus and C-terminus assumed)
2.63 (≈ 6.25 µg/mL) | 5.26 (≈ 12.5 µg/mL) | 5.26 (≈ 12.5 µg/mL) | 5.26 (≈ 12.5 µg/mL) | 2.63 (≈ 6.25 µg/mL) | >2000 | CC(=O)N[C@@H](CCCNC(=N)N)C(=O)NCC(=O)N[C@@H](CCCNC(=N)N)C(=O)N[C@@H](CCCCN)C(=O)N[C@H](C(=O)N[C@H](C(=O)N[C@@H](CCCNC(=N)N)C(=O)N[C@@H](CCCNC(=N)N)C(=O)NCCCC[C@H](NC(=O)[C@H](CCCNC(=N)N)NC(=O)[C@H](CCCNC(=N)N)NC(=O)[C@@H](NC(=O)[C@@H](NC(=O)[C@H](CCCCN)NC(=O)[C@H](CCCNC(=N)N)NC(=O)CNC(=O)[C@H](CCCNC(=N)N)NC(C)=O)C(C)C)C(C)C)C(=O)N[C@@H](CCCCN)C(=O)O)C(C)C)C(C)C [Peptide C2-V2D, (CH3—CO—NH—RGRKVVRR)2KK] (I: Ac-RGRKVVRRKK-OH / II: Ac-RGRKVVRR; amide I:9-II:C)
2.57 (≈ 6.25 µg/mL) | 10.28 (≈ 25 µg/mL) | 2.57 (≈ 6.25 µg/mL) | 5.14 (≈ 12.5 µg/mL) | 2.57 (≈ 6.25 µg/mL) | >2000 | CCCC(=O)N[C@@H](CCCNC(=N)N)C(=O)NCC(=O)N[C@@H](CCCNC(=N)N)C(=O)N[C@@H](CCCCN)C(=O)N[C@H](C(=O)N[C@H](C(=O)N[C@@H](CCCNC(=N)N)C(=O)N[C@@H](CCCNC(=N)N)C(=O)NCCCC[C@H](NC(=O)[C@H](CCCNC(=N)N)NC(=O)[C@H](CCCNC(=N)N)NC(=O)[C@@H](NC(=O)[C@@H](NC(=O)[C@H](CCCCN)NC(=O)[C@H](CCCNC(=N)N)NC(=O)CNC(=O)[C@H](CCCNC(=N)N)NC(=O)CCC)C(C)C)C(C)C)C(=O)N[C@@H](CCCCN)C(=O)O)C(C)C)C(C)C [Peptide C4-V2D, (C3H7—CO—NH—RGRKVVRR)2KK] (I: Butyryl-RGRKVVRRKK-OH / II: Butyryl-RGRKVVRR; amide I:9-II:C)
1.26 (≈ 3.13 µg/mL) | 5.03 (≈ 12.5 µg/mL) | 2.51 (≈ 6.24 µg/mL) | 5.03 (≈ 12.5 µg/mL) | 2.51 (≈ 6.24 µg/mL) | >2000 | CCCCCC(=O)N[C@@H](CCCNC(=N)N)C(=O)NCC(=O)N[C@@H](CCCNC(=N)N)C(=O)N[C@@H](CCCCN)C(=O)N[C@H](C(=O)N[C@H](C(=O)N[C@@H](CCCNC(=N)N)C(=O)N[C@@H](CCCNC(=N)N)C(=O)NCCCC[C@H](NC(=O)[C@H](CCCNC(=N)N)NC(=O)[C@H](CCCNC(=N)N)NC(=O)[C@@H](NC(=O)[C@@H](NC(=O)[C@H](CCCCN)NC(=O)[C@H](CCCNC(=N)N)NC(=O)CNC(=O)[C@H](CCCNC(=N)N)NC(=O)CCCCC)C(C)C)C(C)C)C(=O)N[C@@H](CCCCN)C(=O)O)C(C)C)C(C)C [Peptide C6-V2D, (C5H11—CO—NH—RGRKVVRR)2KK] (I: Hexanoyl-RGRKVVRRKK-OH / II: Hexanoyl-RGRKVVRR; amide I:9-II:C)
2.63 (≈ 6.25 µg/mL) | 2.63 (≈ 6.25 µg/mL) | 2.57 (≈ 6.1 µg/mL) | 2.63 (≈ 6.25 µg/mL) | – | – | CCCCCCCC(=O)N[C@@H](CCCNC(=N)N)C(=O)NCC(=O)N[C@@H](CCCNC(=N)N)C(=O)N[C@@H](CCCCN)C(=O)NCC(=O)NCC(=O)N[C@@H](CCCNC(=N)N)C(=O)N[C@@H](CCCNC(=N)N)C(=O)NCCCC[C@H](NC(=O)[C@H](CCCNC(=N)N)NC(=O)[C@H](CCCNC(=N)N)NC(=O)CNC(=O)CNC(=O)[C@H](CCCCN)NC(=O)[C@H](CCCNC(=N)N)NC(=O)CNC(=O)[C@H](CCCNC(=N)N)NC(=O)CCCCCCC)C(=O)N[C@@H](CCCCN)C(=O)O [Peptide C8-G2D, (C7H15—CO—NH—RGRKGGRR)2KK] (I: Octanoyl-RGRKGGRRKK-OH / II: Octanoyl-RGRKGGRR; amide I:9-II:C; N-terminus and C-terminus assumed)
